From article PMC8765781, “A platform of assays for the discovery of anti-Zika small-molecules with activity in a 3D-bioprinted outer-blood-retina model” (PLoS ONE, 2022)
Where two headings read alike, the source gives them in different places.

How the values were obtained:
[1] = test system: ZIKV-RLuc (Cambodian strain FSS13025); assay: microbe, parasite or virus in culture; type: cell-based, Zika virus
[2] = Zika virus, Vero, read-out: Log AC50 (M) (converted)

Compound	AC50 (Vero cells)	Log AC50 (M) (Vero cells)	CC-v2 (curve class classification v2 of the dose response curve) [1]	Efficacy (difference between neutral response and maximum compound response) [1]	Max Resp (difference between neutral response and compound response for highest compound concentration) [1]	AC50 ([1]; Zika virus, Vero)	AC50 [1, 2]	AC50 [1]	Log AC50 (M) [1]
Oc1c(Cl)cc(Cl)c(Cl)c1Cc1c(O)c(Cl)cc(Cl)c1Cl [NCGC00091195-08]	2.33 µM	-5.6327 M	-1.1	-99.169	-99.917	2.33e-06 M	2.33e-06 M	–	–
CCNC(=O)c1noc(-c2cc(C(C)C)c(O)cc2O)c1-c1ccc(CN2CCOCC2)cc1 [NCGC00247878-08]	36.9 µM	-4.4327 M	-2.3	-68.402	-90.15	3.69e-05 M	3.69e-05 M	–	–
C[C@]12CC[C@@H]3c4ccc(O)cc4CC[C@H]3[C@@H]1CC[C@@H]2O [NCGC00091544-08]	26.9 µM	-4.5699 M	-2.2	-64.056	-67.89	2.69e-05 M	2.69e-05 M	–	–
CC(=O)OC1C=C(CO)C(=O)C(OC(=O)CC(C)C)C1C(C)C (stereo not drawn) [NCGC00347760-02]	36.9 µM	-4.4327 M	-3	-123.001	-99.998	3.69e-05 M	3.69e-05 M	–	–
Cc1c(Cn2c(C)nc3c(C(=O)O)cc(N4CCOCC4)cc32)cccc1C(F)(F)F [NCGC00345796-01]	14.7 µM	-4.8327 M	-2.2	-74.499	-73.923	1.47e-05 M	1.47e-05 M	–	–
CC1(C)CCC(C)(C)c2cc(NC(=O)c3ccc(C(=O)O)cc3)ccc21 [NCGC00181111-01]	36.9 µM	-4.4327 M	-3	-105.549	-80.478	3.69e-05 M	3.69e-05 M	–	–
CC(=O)O/N=C1\C(=O)N(Cc2cc(Cl)ccc2Cl)c2ccc(Cl)cc21 [NCGC00247668-01]	16.5 µM	-4.7827 M	-2.1	-136.639	-99.757	1.65e-05 M	1.65e-05 M	–	–
COc1cc(C(=O)NC2CCN(C)CC2)ccc1Nc1ncc2c(n1)N(C1CCCC1)CCC(=O)N2C(C)C [NCGC00346965-01]	13.1 µM	-4.8827 M	-2.4	-47.886	-47.265	1.31e-05 M	1.31e-05 M	–	–
O=c1[nH]c2ccccc2n1C1CCN(Cc2ccc(-c3nc4cc5nc[nH]c5cc4nc3-c3ccccc3)cc2)CC1 [NCGC00165727-01]	16.5 µM	-4.7827 M	-2.1	-80.197	-82.143	1.65e-05 M	1.65e-05 M	–	–
COc1ccc(-c2oc3cc(O)c(OC)c(O)c3c(=O)c2OC)cc1O [NCGC00385612-01]	1.17 µM	-5.9327 M	-1.2	-71.455	-72.562	1.17e-06 M	1.17e-06 M	–	–
C/C=C1\NC(=O)[C@H]2CSSCC/C=C\[C@H](CC(=O)N[C@H](C(C)C)C(=O)N2)OC(=O)[C@H](C(C)C)NC1=O [NCGC00263220-05]	0.233 µM	-6.6327 M	-1.1	-96.055	-99.405	2.33e-07 M	2.33e-07 M	–	–
Cc1nc(Nc2ncc(C(=O)Nc3c(C)cccc3Cl)s2)cc(N2CCN(CCO)CC2)n1 [NCGC00181129-05]	–	-7.0699 M	-1.1	-120.53	-95.603	8.51e-08 M	8.51e-08 M	–	–
CC#C[C@]1(O)CC[C@H]2[C@@H]3CCC4=CC(=O)CCC4=C3[C@@H](c3ccc(N(C)C)cc3)C[C@@]21C [NCGC00025179-12]	26.1 µM	-4.5827 M	-3	-109.046	-95.447	2.61e-05 M	2.61e-05 M	–	–
NC1(c2ccc(-c3nc4ccn5c(=O)[nH]nc5c4cc3-c3ccccc3)cc2)CCC1 [NCGC00186465-04]	–	-4.6827 M	-2.1	-108.058	-98.999	–	–	2.08e-05 M	-4.6827
CCN(CC)CCNC(=O)c1c(C)[nH]c(/C=C2\C(=O)Nc3ccc(F)cc32)c1C [NCGC00164631-04]	11.7 µM	–	-2.1	-103.003	-99.557	1.17e-05 M	1.17e-05 M	–	–
